Patent publication US5438052A, “Cephalosporin derivatives” (Hoffmann-La Roche Inc., priority 1991, dated 1995)
Values after ≈ are worked out from the molar mass of the structure shown. Read-outs that look alike come from different tables or passages of the source.

Tests used:
[1] = tested on: P. aeruginosa 799/WT; assay: Minimum inhibitory concentration in vitro, agar dilution method; assay type: cell-based; conditions: Pseudomonas aeruginosa
Text: (§1) 1. Minimum Inhibitory Concentration in vitro
(§2) The activities ascertained, minimum inhibitory concentration (MIC) in μg/ml, are compiled in Table 1 hereinafter: […]

[2] = tested on: S. pyogenes 15; assay: as above; assay type: cell-based; conditions: Streptococcus pyogenes
Text: as §1, §2

[3] = tested on: C. freundii 902; assay: as above; assay type: cell-based; conditions: Citrobacter freundii
Text: as §1, §2

[4] = tested on: K. oxytoca 1082; assay: as above; assay type: cell-based; conditions: Klebsiella oxytoca
Text: as §1, §2

[5] = tested on: S. aureus 6538; assay: as above; assay type: cell-based; conditions: Staphylococcus aureus
Text: as §1, §2

[6] = tested on: P. aeruginosa 27853; assay: as above; assay type: cell-based; conditions: Pseudomonas aeruginosa
Text: as §1, §2

[7] = tested on: E. cloacae 908R; assay: as above; assay type: cell-based; conditions: Enterobacter cloacae
Text: as §1, §2

[8] = tested on: P. vulgaris 1028; assay: as above; assay type: cell-based; conditions: Proteus vulgaris
Text: as §1, §2

[9] = tested on: E. cloacae P99; assay: as above; assay type: cell-based; conditions: Enterobacter cloacae
Text: as §1, §2

[10] = tested on: S. pneumoniae BA; assay: as above; assay type: cell-based; conditions: Streptococcus pneumoniae; S. pneumoniae BA, agar dilution; read-out: MIC
Text: as §1, §2

[11] = tested on: P. aeruginosa 799/61; assay: as above; assay type: cell-based; conditions: Pseudomonas aeruginosa
Text: as §1, §2

[12] = tested on: P. aeruginosa MK1184; assay: as above; assay type: cell-based; conditions: Pseudomonas aeruginosa
Text: as §1, §2

[13] = tested on: E. coli 25922; assay: as above; assay type: cell-based; conditions: Escherichia coli
Text: as §1, §2

[14] = tested on: P. mirabilis 2117; assay: as above; assay type: cell-based; conditions: Proteus mirabilis
Text: as §1, §2

[15] = tested on: P. aeruginosa BA; assay: as above; assay type: cell-based; conditions: Pseudomonas aeruginosa
Text: as §1, §2

[16] = tested on: E. cloacae 908SSi; assay: as above; assay type: cell-based; conditions: Enterobacter cloacae
Text: as §1, §2

[17] = tested on: S. marcescens 69438; assay: as above; assay type: cell-based; conditions: Serratia marcescens
Text: as §1, §2

[18] = tested on: K. pneumoniae 418; assay: as above; assay type: cell-based; conditions: Klebsiella pneumoniae
Text: as §1, §2

[19] = tested on: E. coli 25922; assay: Experimental systemic septicaemia in the mouse; assay type: in vivo; conditions: 96 h
Method: (§3) 2. Experimental systemic septicaemia in the mouse
(§4) An experimental systemic septicaemia was produced in albino mice weighing 16-20 g by intraperitoneally injecting into the experimental animals a sample of a dilute culture of the test organism which had been grown overnight. The sample administered is calculated such that the dosage administered is about 5-100 times greater than the dosage which is required to kill 50% of untreated experimental animals within 48 hours. The bacteria were injected as a suspension in the culture broth. Groups of 5 experimental animals each were used not only for the control, but also for the treatment for each dosage tested. The products in accordance with the invention were administered subcutaneously as a suspension in Tween 80 (2%), whereby the concentrations were chosen such that each experimental animal received 500 μl per administration. The respective concentrations were administered twice, namely 1 and 3 hours after the infection (in the case of P. aeruginosa three times, namely 1, 3 and 5 hours after the infection). The ED50 is that dosage which protects 50% of the experimental animals and was calculated by means of the Probit method on the basis of the survial rate after 4 days following the infection. The ED50 values in mg/kg s.c. (subcutaneous) for representatives of the class of substance in accordance with the invention are given in Table 2 hereinafter.

[20] = tested on: Pseudomonas aeruginosa BA; assay: Experimental systemic septicaemia in the mouse; assay type: in vivo; conditions: sc, 96 h
Method: as §3, §4

[21] = P. aeruginosa 799/WT, agar dilution, read-out: MIC
[22] = S. pyogenes 15, agar dilution, read-out: MIC
[23] = C. freundii 902, agar dilution, read-out: MIC
[24] = K. oxytoca 1082, agar dilution, read-out: MIC
[25] = S. aureus 6538, agar dilution, read-out: MIC
[26] = P. aeruginosa 27853, agar dilution, read-out: MIC
[27] = E. cloacae 908R, agar dilution, read-out: MIC
[28] = P. vulgaris 1028, agar dilution, read-out: MIC
[29] = P. aeruginosa 799/61, agar dilution, read-out: MIC
[30] = P. aeruginosa MK1184, agar dilution, read-out: MIC
[31] = E. coli 25922, agar dilution, read-out: MIC
[32] = P. mirabilis 2117, agar dilution, read-out: MIC
[33] = P. aeruginosa BA, agar dilution, read-out: MIC
[34] = E. cloacae 908SSi, agar dilution, read-out: MIC
[35] = S. marcescens 69438, agar dilution, read-out: MIC
[36] = K. pneumoniae 418, agar dilution, read-out: MIC
[37] = Escherichia coli, sc, E. coli 25922, albino mice, s.c. 1 and 3 hours after infection, survival after 4 days, read-out: ED50
[38] = P. aeruginosa BA, albino mice, s.c. 1, 3 and 5 hours after infection, survival after 4 days, read-out: ED50

| SMILES | MIC [1, 21] [µg/mL] | MIC [2, 22] [µg/mL] | MIC [3, 23] [µg/mL] | MIC [4, 24] [µg/mL] | MIC [5, 25] [µg/mL] | MIC [6, 26] [µg/mL] | MIC [7, 27] [µg/mL] | MIC [8, 28] [µg/mL] | MIC [9] [µg/mL] | MIC [10] [µg/mL] | MIC [11, 29] [µg/mL] | MIC [12, 30] [µg/mL] | MIC [13, 31] [µg/mL] | MIC [14, 32] [µg/mL] | MIC [15, 33] [µg/mL] | MIC [16, 34] [µg/mL] | MIC [17, 35] [µg/mL] | MIC [18, 36] [µg/mL] | ED50 [19, 37] [mg/kg] | ED50 [20, 38] [mg/kg] | other results |
| --- | --- | --- | --- | --- | --- | --- | --- | --- | --- | --- | --- | --- | --- | --- | --- | --- | --- | --- | --- | --- | --- |
| CC(C)(O/N=C(\C(=O)N[C@@H]1C(=O)N2C(C(=O)O)=C(CS(=O)(=O)c3ccc(O)c(O)c3)CS[C@H]12)c1csc(N)n1)C(=O)NO [Example 21, (6R,7R)-7-[(Z)-2-(2-amino-4-thiazolyl)-2-[[(1-hydroxycarbamoyl)-1-methylethoxy]imino]acetamido]-3-[[(3,4-dihydroxyphenyl)sulphonyl]methyl]-8-oxo-5-thia-1-azabicyclo[4.2.0]oct-2-ene-2-carboxylic acid] | 8 (≈ 12.2 µM) | 16 (≈ 24.4 µM) | 4 (≈ 6.09 µM) | 1 (≈ 1.52 µM) | > 32 | 8 (≈ 12.2 µM) | 8 (≈ 12.2 µM) | 2 (≈ 3.05 µM) | 16 (≈ 24.4 µM) | 8 (≈ 12.2 µM) | 0.25 (≈ 0.381 µM) | > 32 | 1 (≈ 1.52 µM) | 1 (≈ 1.52 µM) | 8 (≈ 12.2 µM) | 8 (≈ 12.2 µM) | 1 (≈ 1.52 µM) | 0.5 (≈ 0.761 µM) | < 0.3 | 0.39 | – |
| Cc1cc(SCC2=C(C(=O)O)N3C(=O)[C@@H](NC(=O)/C(=N\OC(C)(C)C(=O)NO)c4csc(N)n4)[C@H]3SC2)n2nc(CNS(=O)(=O)c3ccc(O)c(O)c3)nc2n1 [Example 1, (6R,7R)-7-[(Z)-2-(2-amino-4-thiazolyl)-2-[[(1-hydroxycarbamoyl)-1-methylethoxy]imino]acetamido]-3-[[[2-[(3,4-dihydroxybenzenesulphonamido)methyl]-5-methyl-s-triazolo[1.5-a]pyrimidin-7-yl]thio]methyl]-8-oxo-5-thia-1-azabicyclo[4.2.0]oct-2-ene-2-carboxylic acid] | 0.5 (≈ 0.588 µM) | 4 (≈ 4.71 µM) | 1 (≈ 1.18 µM) | 0.5 (≈ 0.588 µM) | 16 (≈ 18.8 µM) | 4 (≈ 4.71 µM) | 16 (≈ 18.8 µM) | 0.5 (≈ 0.588 µM) | 32 (≈ 37.7 µM) | – | 0.25 (≈ 0.294 µM) | 4 (≈ 4.71 µM) | 0.25 (≈ 0.294 µM) | 0.12 (≈ 0.141 µM) | 0.5 (≈ 0.588 µM) | 4 (≈ 4.71 µM) | 0.25 (≈ 0.294 µM) | 0.12 (≈ 0.141 µM) | – | – | – |
| CC(C)(O/N=C(\C(=O)N[C@@H]1C(=O)N2C(C(=O)O)=C(CSc3nnc(-c4ccc(O)c(O)c4)o3)CS[C@H]12)c1csc(N)n1)C(=O)NNC(=O)c1ccc(O)c(O)c1 [Example 45, (6R,7R)-7-[(Z)-2-(2-amino-4-thiazolyl)-2-[[1-[3-(3,4-dihydroxybenzoyl)carbazoyl]-1-methylethoxy]imino]acetamido]-3-[[[5-(3,4-dihydroxyphenyl)-1,3,4-oxadiazol-2-yl]thio]methyl]-8-oxo-5-thia-1-azabicyclo[4.2.0]oct-2-ene-2-carboxylic acid] | 0.06 (≈ 0.0725 µM) | 1 (≈ 1.21 µM) | 0.06 (≈ 0.0725 µM) | 0.06 (≈ 0.0725 µM) | 16 (≈ 19.3 µM) | 0.12 (≈ 0.145 µM) | > 32 | – | > 32 | 0.25 (≈ 0.302 µM) | 0.64 (≈ 0.773 µM) | 1 (≈ 1.21 µM) | 0.06 (≈ 0.0725 µM) | – | 0.06 (≈ 0.0725 µM) | 2 (≈ 2.42 µM) | 0.06 (≈ 0.0725 µM) | 0.06 (≈ 0.0725 µM) | 0.13 | 2.1 | – |
| Nc1nc(/C(=N/OCc2nc(=O)c(O)c[nH]2)C(=O)N[C@@H]2C(=O)N3C(C(=O)O)=C(CSc4cc(-c5ccc(O)c(O)c5)nc5ccnn45)CS[C@H]23)cs1 [Example 13, (6R,7R)-7-[(Z)-2-(2-amino-4-thiazolyl)-2-[[(1,4-dihydro-5-hydroxy-4-oxo-2-pyrimidinyl)methoxy]imino]acetamido]-3-[[[5-(3,4-dihydroxyphenyl)pyrazolo[1,5-a]pyrimidin-7-yl]thio]methyl]-8-oxo-5-thia-1-azabicyclo[4.2.0]oct-2-ene-2-carboxylic acid] | 1 (≈ 1.31 µM) | 1 (≈ 1.31 µM) | 0.25 (≈ 0.327 µM) | 0.06 (≈ 0.0785 µM) | 16 (≈ 20.9 µM) | 4 (≈ 5.23 µM) | 1 (≈ 1.31 µM) | 0.06 (≈ 0.0785 µM) | 8 (≈ 10.5 µM) | – | 0.06 (≈ 0.0785 µM) | 8 (≈ 10.5 µM) | 0.06 (≈ 0.0785 µM) | 0.06 (≈ 0.0785 µM) | 2 (≈ 2.62 µM) | 4 (≈ 5.23 µM) | 0.12 (≈ 0.157 µM) | 0.06 (≈ 0.0785 µM) | – | 4 | – |
| Nc1nc(/C(=N/OCc2ccc(O)c(O)c2)C(=O)N[C@@H]2C(=O)N3C(C(=O)O)=C(CS(=O)(=O)c4ccc(O)c(O)c4)CS[C@H]23)cs1 [Example 23, (6R,7R)-7-[(Z)-2-(2-amino-4-thiazolyl)-2-[[(3,4-dihydroxybenzyl)oxy]imino]acetamido]-3-[[(3,4-dihydroxyphenyl)sulphonyl]methyl]-8-oxo-5-thia-1-azabicyclo[4.2.0]oct-2-ene-2-carboxylic acid] | 1 (≈ 1.48 µM) | 4 (≈ 5.9 µM) | 4 (≈ 5.9 µM) | 16 (≈ 23.6 µM) | 16 (≈ 23.6 µM) | 32 (≈ 47.2 µM) | > 32 | 2 (≈ 2.95 µM) | > 32 | 4 (≈ 5.9 µM) | 0.12 (≈ 0.177 µM) | > 32 | 0.25 (≈ 0.369 µM) | 1 (≈ 1.48 µM) | 32 (≈ 47.2 µM) | 16 (≈ 23.6 µM) | 2 (≈ 2.95 µM) | 0.12 (≈ 0.177 µM) | – | – | – |
| Cc1cc(SCC2=C(C(=O)[O-])N3C(=O)[C@@H](NC(=O)/C(=N\OCS(=O)(=O)c4ccc(O)c(O)c4)c4csc(N)n4)[C@H]3SC2)n2nc(CS(=O)(=O)c3ccc(O)c(O)c3)nc2n1.[Na+] [Example 10, (6R,7R)-7-[(Z)-2-(2-amino-4-thiazolyl)-2-[[[(3,4-dihydroxyphenyl)sulphonyl]methoxy]imino]acetamido]-3-[[[2-[[(3,4-dihydroxyphenyl)sulphonyl]methyl]-5-methyl-s-triazolo[1,5-a]pyrimidin-7-yl]thio]methyl]-8-oxo-5-thia-1-azabicyclo[4.2.0]oct-2-ene-2-carboxylic acid sodium salt (1:1)] | – | – | – | – | – | – | – | – | 16 | – | – | – | – | – | – | – | – | – | – | – | MIC ([1]; 799/WT): < 0.1 µg/mL; MIC [2]; 15: 4 µg/mL; MIC [3]; 902: 0.12 µg/mL; MIC [4]; 1082: 4 µg/mL; MIC [5]; 6538: 32 µg/mL; MIC [6]; 27853: < 0.1 µg/mL; MIC ([7]; 908R): 2 µg/mL; MIC [8]; 1028: < 0.1 µg/mL; MIC ([11]; 799/61): < 0.1 µg/mL; MIC ([12]; MK1184): < 0.1 µg/mL; MIC [13]; 25922: < 0.1 µg/mL; MIC [14]; 2117: < 0.1 µg/mL; MIC [15]: < 0.1 µg/mL; MIC ([16]; 908SSI): 8 µg/mL; MIC [17]; 69438: 0.12 µg/mL; MIC [18]; 418: < 0.1 µg/mL; ED50 ([19]; Escherichia coli, 25922, sc): < 0.1 mg/kg; ED50 [20]: 0.15 mg/kg |
